Values joined by “and” are separate entries in the source; they are usually repeats but may differ in a detail not shown here. Identical values can stand only once. Like-named read-outs stand apart in the source and are kept apart here.
Key:
MRGPRX4 + RAMP2 = biological target: T1, MRGPRX4 + RAMP2 (Homo sapiens, UniProt Q96LA9); experiment: IP1 accumulation, MRGPRX4 coexpressed with RAMP2; assay type: cell-based; design: key to IP1 Basal / response to agonist, X4:ramp2.I:0.25 / response to agonist, X4:ramp2.I:0.5 / response to agonist, X4:ramp2.I:1: % IP1; unstimulated mock = 0%, fully stimulated MRGPRX4 = 100%; settings: normalized per agonist; for Emax: read-out: IP1 Emax
T1 construct: expressed in transfected cells; host or cells: HEK293T
T1 sequence (Q96LA9 whole entry): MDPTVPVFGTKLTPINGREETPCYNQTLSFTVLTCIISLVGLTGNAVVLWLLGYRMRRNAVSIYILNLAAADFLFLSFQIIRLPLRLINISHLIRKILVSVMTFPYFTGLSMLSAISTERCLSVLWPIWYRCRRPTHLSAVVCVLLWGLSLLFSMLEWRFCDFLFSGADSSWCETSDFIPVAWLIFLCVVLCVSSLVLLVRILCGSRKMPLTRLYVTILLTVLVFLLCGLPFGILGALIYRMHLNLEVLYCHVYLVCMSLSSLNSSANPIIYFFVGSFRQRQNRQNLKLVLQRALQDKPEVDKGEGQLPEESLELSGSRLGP
Protocol: (§1) HEK293T cells were transfected with 1 pg/cell of MRGPRX4 DNA, and the amount of DNA was kept constant at 2 pg/cell with pcDNA3.1(+) empty vector, unless otherwise specified. Twenty four hours after transfection, IP1 assay was performed as previously described ([51]). When applicable, cells were treated with 1 μM YM254890 (YM) or different concentrations of U73122 for 1 h prior to addition of agonist or buffer. After incubation for 2 h, HTRF reagents and IP1 calibration standards were added and incubated for 2 h in the dark at room temperature. Time-resolved fluorescence signals were read on the BioTek Synergy NEO-TRF Hybrid multi-mode reader (BioTek Instruments). All data were carried out in three independent experiments with three technical replicate each.
For RAMP DNA titration assay, HEK293T cells were cotransfected with a constant amount of 1 pg/cell of FLAG-MRGPRX4-GFP10-1D4 to which a serial dilution of 1, 0.75, 0.5, 0.25, or 0 pg/cell of each HA-RAMP-OLLAS was added. For a homogenous transfection of MRGPRX4, a master mix of MRGPRX4 DNA was made prior to addition of the RAMP DNA. […]
(§2) Data reduction, standard calibration, and transformation of HTRF data were performed as previously described ([51]). Normalized IP1 values were calculated relative to the unstimulated mock-transfected cells (set to 0%) and fully stimulated MRGPRX4 (alone if applicable) (set to 100%).

MRGPRX4 + RAMP1 = biological target: T2, MRGPRX4 + RAMP1 (Homo sapiens, UniProt Q96LA9); experiment: IP1 accumulation, MRGPRX4 coexpressed with RAMP1; assay type: cell-based; design: key to IP1 Basal / response to agonist, X4:ramp1.I:1 / response to agonist, X4:ramp1.I:2 / response to agonist, X4:ramp1.I:0.25 / response to agonist, X4:ramp1.I:0.5: % IP1; unstimulated mock = 0%, fully stimulated MRGPRX4 = 100%; settings: for activation at 100 µM / activation at 20 µM / activation at 0.8 µM / activation at […] / activation at 0.032 µM / activation at 4 µM: 2 h, Fig S3d, read-out: IP1 accumulation; for activation at 100 µM: log [DCA] (M) -4; for activation at 20 µM: log [DCA] (M) -4.69897; for activation at 0.8 µM: log [DCA] (M) -6.09691; for activation at […]: log [DCA] (M) -6.79588; for activation at 0.032 µM: log [DCA] (M) -7.49485; for activation at 4 µM: log [DCA] (M) -5.39794
T2 construct: expressed in transfected cells; host or cells: HEK293T
T2 sequence (Q96LA9 whole entry): as above
Protocol: as §1
For a homogenous transfection of MRGPRX4, a master mix of MRGPRX4 DNA was made prior to addition of the RAMP DNA. […]
as §2

In the case of `C[C@H](CCC(=O)O)[C@H]1CC[C@H]2[C@@H]3CC[C@@H]4C[C@H](O)CC[C@]4(C)[C@H]3C[C@H](O)[C@]12C` [DCA, deoxycholic acid], the Emax (MRGPRX4 + RAMP2; MRGPRX4 + RAMP2 1 pg (Fig. S3)) is reported as 56.2%, the “IP1 Basal” value (MRGPRX4 + RAMP2; MRGPRX4 + RAMP2 2 pg (Fig. S3)) is reported as 5.412 and the IP1 span (Emax minus basal) (MRGPRX4 + RAMP2; MRGPRX4 + RAMP2 2 pg (Fig. S3)) is reported as 24.4%. The Emax (MRGPRX4 + RAMP2; MRGPRX4 + RAMP2 2 pg (Fig. S3)) was 29.9%, the activation at 100 µM (MRGPRX4 + RAMP1; ratio MRGPRX4:RAMP1 1:0.25) was 91.8% and the activation at 20 µM (MRGPRX4 + RAMP1; ratio MRGPRX4:RAMP1 1:0.25) was 80.7%. The activation at 0.8 µM (MRGPRX4 + RAMP1; ratio MRGPRX4:RAMP1 1:0.25) was 27.4%, the activation at […] (MRGPRX4 + RAMP1; ratio MRGPRX4:RAMP1 1:0.25) was 30.3% and the activation at 0.032 µM (MRGPRX4 + RAMP1; ratio MRGPRX4:RAMP1 1:0.25) was 28.5%. It also gave an activation at 100 µM (MRGPRX4 + RAMP1; ratio MRGPRX4:RAMP1 1:0.5) of 103%, an activation at 20 µM (MRGPRX4 + RAMP1; ratio MRGPRX4:RAMP1 1:0.5) of 62.7% and an activation at 4 µM (MRGPRX4 + RAMP1; ratio MRGPRX4:RAMP1 1:0.5) of 38.6%. It also gave an activation at 0.8 µM (MRGPRX4 + RAMP1; ratio MRGPRX4:RAMP1 1:0.5) of 26.5%, an activation at […] (MRGPRX4 + RAMP1; ratio MRGPRX4:RAMP1 1:0.5) of 22.5% and an activation at 0.032 µM (MRGPRX4 + RAMP1; ratio MRGPRX4:RAMP1 1:0.5) of 22.6%. For the same compound, the activation at 20 µM (MRGPRX4 + RAMP1; ratio MRGPRX4:RAMP1 1:1) was 61.5%, the activation at 4 µM (MRGPRX4 + RAMP1; ratio MRGPRX4:RAMP1 1:1) was 34.6% and the activation at 0.8 µM (MRGPRX4 + RAMP1; ratio MRGPRX4:RAMP1 1:1) was 30.1%. For the same compound, the activation at […] (MRGPRX4 + RAMP1; ratio MRGPRX4:RAMP1 1:1) was 22.8%, the activation at 20 µM (MRGPRX4 + RAMP1; ratio MRGPRX4:RAMP1 1:2) was 59.4% and the activation at 4 µM (MRGPRX4 + RAMP1; ratio MRGPRX4:RAMP1 1:2) was 29.7%. It also gave an activation at 0.8 µM (MRGPRX4 + RAMP1; ratio MRGPRX4:RAMP1 1:2) of 22%, an activation at […] (MRGPRX4 + RAMP1; ratio MRGPRX4:RAMP1 1:2) of 15.8% and an Emax (MRGPRX4 + RAMP1; Figure 4a bottom, DNA ratio MRGPRX4:RAMP1 1:0.5, MRGPRX4 alone = 100, read-out: efficacy) of 109%. For the same compound, the “response to agonist, X4:ramp1.I:0.25” value (MRGPRX4 + RAMP1; Figure 4c-f, agonist 100µM, X4:ramp1 1:0.25, MRGPRX4 = 100) was 100.247 and 94.5976, the “response to agonist, X4:ramp1.I:0.5” value (MRGPRX4 + RAMP1; Figure 4c-f, agonist 100µM, X4:ramp1 1:0.5, MRGPRX4 = 100) was 101.591 and 94.608 and the “response to agonist, X4:ramp1.I:1” value (MRGPRX4 + RAMP1; Figure 4c-f, agonist 100µM, X4:ramp1 1:1, MRGPRX4 = 100) was 97.7538 and 86.0836. For the same compound, the “response to agonist, X4:ramp1.I:2” value (MRGPRX4 + RAMP1; Figure 4c-f, agonist 100µM, X4:ramp1 1:2, MRGPRX4 = 100) was 90.6013 and 100.616, the “IP1 Basal” value (MRGPRX4 + RAMP1; MRGPRX4 + RAMP1 0.25 pg (Fig. S3), normalized per agonist) was 25.16 and the Emax (MRGPRX4 + RAMP1; MRGPRX4 + RAMP1 0.25 pg (Fig. S3), normalized per agonist, read-out: IP1 Emax) was 113%. The Emax (MRGPRX4 + RAMP1; MRGPRX4 + RAMP1 0.25 pg (Fig. S3), normalized per agonist, read-out: IP1 span) was 87.7%, the “IP1 Basal” value (MRGPRX4 + RAMP1; MRGPRX4 + RAMP1 0.5 pg (Fig. S3), normalized per agonist) was 24.94 and the Emax (MRGPRX4 + RAMP1; MRGPRX4 + RAMP1 0.5 pg (Fig. S3), normalized per agonist, read-out: IP1 Emax) was 117%. The Emax (MRGPRX4 + RAMP1; MRGPRX4 + RAMP1 0.5 pg (Fig. S3), normalized per agonist, read-out: IP1 span) was 92%, the “IP1 Basal” value (MRGPRX4 + RAMP1; MRGPRX4 + RAMP1 1 pg (Fig. S3), normalized per agonist) was 22.25 and the Emax (MRGPRX4 + RAMP1; MRGPRX4 + RAMP1 1 pg (Fig. S3), normalized per agonist, read-out: IP1 Emax) was 118%. For the same compound, the Emax (MRGPRX4 + RAMP1; MRGPRX4 + RAMP1 1 pg (Fig. S3), normalized per agonist, read-out: IP1 span) was 95.8%, the “IP1 Basal” value (MRGPRX4 + RAMP1; MRGPRX4 + RAMP1 2 pg (Fig. S3), normalized per agonist) was 17.30 and the Emax (MRGPRX4 + RAMP1; MRGPRX4 + RAMP1 2 pg (Fig. S3), normalized per agonist, read-out: IP1 Emax) was 112%. It also gave an Emax (MRGPRX4 + RAMP1; MRGPRX4 + RAMP1 2 pg (Fig. S3), normalized per agonist, read-out: IP1 span) of 94.5%.

— PMC10165273, “Itch receptor MRGPRX4 interacts with the receptor activity–modifying proteins” (The Journal of Biological Chemistry, 2023)
